{"source": "patent US20050085463A1", "about": "(priority 2003, published 2005)", "key": {"[1]": {"system": "MAPK in CA1 region of hippocampus (M1 receptor mediated)"}, "5HT1B receptors": {"molecular_target": "5HT1B receptors (Homo sapiens, UniProt P28222)", "sequence (P28222 whole entry)": "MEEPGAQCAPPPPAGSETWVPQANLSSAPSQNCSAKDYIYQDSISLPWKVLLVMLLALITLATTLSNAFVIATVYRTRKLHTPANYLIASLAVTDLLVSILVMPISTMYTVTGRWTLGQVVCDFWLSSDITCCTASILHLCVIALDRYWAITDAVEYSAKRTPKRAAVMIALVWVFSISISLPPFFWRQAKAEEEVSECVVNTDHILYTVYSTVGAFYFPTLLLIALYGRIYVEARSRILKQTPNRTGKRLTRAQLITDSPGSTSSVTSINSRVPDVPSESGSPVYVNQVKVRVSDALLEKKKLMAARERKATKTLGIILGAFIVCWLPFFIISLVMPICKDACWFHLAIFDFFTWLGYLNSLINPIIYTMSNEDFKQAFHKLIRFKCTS", "test": "Ligand binding screen at 10 μM"}, "M4 muscarinic receptor": {"molecular_target": "T1, M4 muscarinic receptor (Homo sapiens, UniProt P08173)", "T1 sequence (P08173 1-479)": "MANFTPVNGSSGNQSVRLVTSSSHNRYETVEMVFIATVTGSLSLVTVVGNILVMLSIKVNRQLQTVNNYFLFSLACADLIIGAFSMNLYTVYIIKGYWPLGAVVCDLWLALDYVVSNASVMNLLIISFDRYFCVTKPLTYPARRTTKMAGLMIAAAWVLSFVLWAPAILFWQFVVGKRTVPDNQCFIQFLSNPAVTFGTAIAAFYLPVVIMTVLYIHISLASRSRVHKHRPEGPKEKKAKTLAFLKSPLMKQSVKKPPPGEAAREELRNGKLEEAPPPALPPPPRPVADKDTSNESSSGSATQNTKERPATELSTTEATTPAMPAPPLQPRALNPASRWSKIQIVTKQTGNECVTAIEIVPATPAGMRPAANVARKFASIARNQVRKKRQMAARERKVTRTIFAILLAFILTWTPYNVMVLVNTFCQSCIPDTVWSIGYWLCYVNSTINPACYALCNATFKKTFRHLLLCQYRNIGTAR", "test": "R-SAT agonist assay", "assay_type": "cell-based", "set-up": "expressed in transfected cells; host or cells: NIH/3T3", "conditions": "relative to carbachol, No response/nr = no agonist activity up to 10 μM"}, "M5 muscarinic receptor": {"molecular_target": "T2, M5 muscarinic receptor (Homo sapiens, UniProt P08912)", "T2 sequence (P08912 1-532)": "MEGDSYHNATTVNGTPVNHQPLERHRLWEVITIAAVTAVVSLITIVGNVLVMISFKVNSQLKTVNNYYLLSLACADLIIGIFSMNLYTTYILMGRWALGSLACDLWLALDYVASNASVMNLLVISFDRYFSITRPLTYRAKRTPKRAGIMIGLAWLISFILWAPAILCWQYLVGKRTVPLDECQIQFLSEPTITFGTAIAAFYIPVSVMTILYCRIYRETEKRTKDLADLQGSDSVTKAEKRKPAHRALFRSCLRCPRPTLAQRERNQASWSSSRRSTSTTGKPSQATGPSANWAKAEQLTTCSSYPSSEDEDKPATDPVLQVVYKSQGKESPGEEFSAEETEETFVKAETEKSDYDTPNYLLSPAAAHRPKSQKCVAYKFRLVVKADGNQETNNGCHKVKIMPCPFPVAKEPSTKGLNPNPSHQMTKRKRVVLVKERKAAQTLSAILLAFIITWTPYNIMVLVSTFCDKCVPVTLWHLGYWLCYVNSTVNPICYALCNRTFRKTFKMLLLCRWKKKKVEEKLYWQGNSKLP", "test": "R-SAT competitive antagonist assay", "conditions": "nr = no significant antagonist or inverse agonist activity up to 1 μM, nr* = nr but significant agonist activity"}, "[2]": {"test": "Serum levels during clozapine treatment of schizophrenic patients", "assay_type": "in vivo, human", "experimental": "The analysis was adjusted for baseline level of symptom severity, age, and dose, since dose was not fixed. […] Regarding co-treatment with anticholinergic agents, only two subjects in this sample were treated with benztropine. […] Lastly, ten of the patients in this study were treated with benzodiazepines at the time the levels of clozapine and NDMC were measured.\nPatients were classified as treatment resistant or not by standard criteria (Kane et al 1988), and clinical ratings and neuropsychological test scores were obtained by trained raters who were blinded to plasma drug levels."}, "5HT3 receptors": {"molecular_target": "5HT3 receptors (Homo sapiens, UniProt P46098)", "sequence (P46098 24-478)": "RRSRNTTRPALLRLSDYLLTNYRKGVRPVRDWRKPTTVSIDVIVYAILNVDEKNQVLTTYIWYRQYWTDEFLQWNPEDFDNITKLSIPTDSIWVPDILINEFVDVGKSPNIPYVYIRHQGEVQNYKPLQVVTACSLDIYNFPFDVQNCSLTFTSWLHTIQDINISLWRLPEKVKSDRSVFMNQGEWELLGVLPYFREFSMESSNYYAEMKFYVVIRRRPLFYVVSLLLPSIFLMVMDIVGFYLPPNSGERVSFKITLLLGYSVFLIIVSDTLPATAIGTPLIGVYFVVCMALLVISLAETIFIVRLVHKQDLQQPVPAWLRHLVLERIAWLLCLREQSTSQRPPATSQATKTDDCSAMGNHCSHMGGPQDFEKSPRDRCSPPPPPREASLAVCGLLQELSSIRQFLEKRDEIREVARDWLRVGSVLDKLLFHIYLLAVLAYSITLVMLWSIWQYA", "test": "Ligand binding screen at 10 μM"}, "M1 muscarinic receptor": {"molecular_target": "T3, M1 muscarinic receptor (Homo sapiens, UniProt P11229)", "T3 sequence (P11229 1-460)": "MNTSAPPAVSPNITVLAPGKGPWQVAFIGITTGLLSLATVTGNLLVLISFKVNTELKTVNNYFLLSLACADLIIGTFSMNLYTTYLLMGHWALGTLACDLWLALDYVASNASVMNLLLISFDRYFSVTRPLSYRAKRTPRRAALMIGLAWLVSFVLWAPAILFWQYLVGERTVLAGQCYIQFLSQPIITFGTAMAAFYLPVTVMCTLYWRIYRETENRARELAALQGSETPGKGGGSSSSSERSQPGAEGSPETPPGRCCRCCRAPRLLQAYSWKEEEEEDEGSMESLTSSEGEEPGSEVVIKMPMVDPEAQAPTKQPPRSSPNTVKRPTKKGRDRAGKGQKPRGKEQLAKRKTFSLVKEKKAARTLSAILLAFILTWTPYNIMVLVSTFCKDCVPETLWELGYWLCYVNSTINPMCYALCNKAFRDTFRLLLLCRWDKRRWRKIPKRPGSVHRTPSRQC"}, "M3 muscarinic receptor [3]": {"molecular_target": "T4, M3 muscarinic receptor (Homo sapiens, UniProt P20309)", "T4 sequence (P20309 whole entry)": "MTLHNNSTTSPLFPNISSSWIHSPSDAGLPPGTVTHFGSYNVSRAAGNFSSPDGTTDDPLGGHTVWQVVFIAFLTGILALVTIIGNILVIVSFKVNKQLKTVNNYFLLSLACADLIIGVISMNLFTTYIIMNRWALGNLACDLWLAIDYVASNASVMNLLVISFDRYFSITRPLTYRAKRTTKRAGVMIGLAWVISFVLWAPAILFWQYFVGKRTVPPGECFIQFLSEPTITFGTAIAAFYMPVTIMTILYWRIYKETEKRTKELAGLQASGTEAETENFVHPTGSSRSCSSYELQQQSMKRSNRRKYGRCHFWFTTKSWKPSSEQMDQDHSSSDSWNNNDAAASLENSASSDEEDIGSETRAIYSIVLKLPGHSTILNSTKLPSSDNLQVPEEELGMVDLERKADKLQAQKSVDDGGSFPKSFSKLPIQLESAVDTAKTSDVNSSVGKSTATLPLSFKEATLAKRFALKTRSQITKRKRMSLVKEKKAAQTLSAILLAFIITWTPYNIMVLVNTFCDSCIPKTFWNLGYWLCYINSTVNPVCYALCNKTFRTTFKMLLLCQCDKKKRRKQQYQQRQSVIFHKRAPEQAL", "test": "R-SAT agonist assay"}, "M3 muscarinic receptor [4]": {"molecular_target": "T4, M3 muscarinic receptor", "test": "R-SAT competitive antagonist assay", "assay_type": "cell-based", "conditions": "nr = no significant antagonist or inverse agonist activity up to 1 μM, nr* = nr but significant agonist activity, read-out: pKi M3, competitive antagonist (converted)"}, "[5]": {"conditions": "dog; oral clozapine (Mosier et al. 2003); cited from earlier work"}, "[6]": {"conditions": "clozapine-treated schizophrenics"}, "[7]": {"conditions": "clozapine-treated treatment resistant schizophrenics"}}, "note": "Where “and” joins values, the source holds several entries; their conditions need not be identical. Equal values may be shown once. Entries after “also recorded” stand apart in the source; their conditions may differ.", "data": [{"smiles": "Clc1ccc2c(c1)N=C(N1CCNCC1)c1ccccc1N2", "note": "[NDMC, 8-chloro-11-(1-piperazinyl)-5H-dibenzo [b,e][1,4] diazepine]", "values": [{"measurement": "MAPK activation in CA1 region of hippocampus", "setting": "[1]; s.c. 3, 10, 30 and 100 mg/kg, killed two hours later, phospho-MAPK immunoreactivity", "result": "stimulation of MAPK activity at all doses in a dose-dependent manner; also recorded: Robust activation was observed, at a dose of 30 mg/kg"}, {"measurement": "dose with statistically significant M1 receptor activation (phospho-MAPK)", "setting": "[1]; s.c., optical density of CA1 region, vs vehicle", "result": "≥ 30", "unit": "mg/kg"}, {"measurement": "inhibition at 10 µM", "setting": "5HT1B receptors", "result": "≥ 90", "unit": "%"}, {"measurement": "M4 Efficacy", "setting": "M4 muscarinic receptor", "result": "87 ± 8", "unit": "%"}, {"measurement": "pKi M5, competitive antagonist", "setting": "M5 muscarinic receptor", "result": "nr*"}, {"measurement": "Serum level, All Subjects at 6 Months (92)", "setting": "[2]; [6]", "result": "235 ± 190", "unit": "ng/mL"}, {"measurement": "Serum level, All Subjects at 6 Weeks (86)", "setting": "[2]; [6]", "result": "194 ± 136", "unit": "ng/mL"}, {"measurement": "Serum level, Non-Responders (25)", "setting": "[2]; [7]", "result": "171 ± 123", "unit": "ng/mL"}, {"measurement": "Serum level, Responders (26)", "setting": "[2]; [7]", "result": "308 ± 243", "unit": "ng/mL"}, {"measurement": "Serum level, All TR Subjects (59)", "setting": "[2]; clozapine-treated treatment resistant schizophrenics, drawn 12 hours after last clozapine dose", "result": "260 ± 203", "unit": "ng/mL"}, {"measurement": "inhibition at 10 µM", "setting": "5HT3 receptors", "result": "≥ 90", "unit": "%"}, {"measurement": "pKi, competitive antagonist", "setting": "M1 muscarinic receptor; PI hydrolysis in the presence of 3-micromolar carbachol", "result": "no response"}, {"measurement": "M1 % Efficacy", "setting": "M1 muscarinic receptor; PI hydrolysis, relative to carbachol, listed as N-desmethylclozapine", "result": "65 ± 10", "unit": "%"}, {"measurement": "EC50", "setting": "M3 muscarinic receptor [3]; M3 pEC50, R-SAT agonist", "result": "324 nM and 316 nM"}, {"measurement": "M3 Efficacy", "setting": "M3 muscarinic receptor [3]; R-SAT, relative to carbachol, No response/nr = no agonist activity up to 10 μM", "result": "27 ± 4", "unit": "%"}, {"measurement": "Ki", "setting": "M3 muscarinic receptor [4]", "result": 158, "unit": "nM"}, {"measurement": "Cmax of desmethylclozapine as share of that of clozapine", "setting": "[5]", "result": "approximately 20%"}]}]}
